Measured values: the supplement of paper PMC10307832

What was measured:
Assay in all cases: relative viability (nuclei count vs DMSO), 5 days (fraction); higher = more cells survive
Wnt-C59 + Linsitinib = compound: CC1=NC=CC(=C1)C2=CC=C(C=C2)CC(=O)NC3=CC=C(C=C3)C4=CN=CC=C4 [Wnt-C59] + C[C@]1(O)C[C@@H](c2nc(-c3ccc4ccc(-c5ccccc5)nc4c3)c3c(N)nccn32)C1 [Linsitinib] (partner 1 µM)
Method in brief: (§1)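 Lung cancer cell lines in 1536-well plates got either a single drug or a fixed anchor-drug dose together with five library-drug doses (not always all listed) in √10 steps, by pin tool, on the day after seeding. Nuclei were counted after 5 days, and relative viability is the treated-to-vehicle ratio of nuclei counts. Values are medians of duplicate plates.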

Wnt-C59 + Phenformin = compound: CC1=NC=CC(=C1)C2=CC=C(C=C2)CC(=O)NC3=CC=C(C=C3)C4=CN=CC=C4 [Wnt-C59] + N=C(N)NC(=N)NCCc1ccccc1 [Phenformin] (partner 250 µM)
Method in brief: as §1

Lapatinib + Palbociclib = compound: CS(=O)(=O)CCNCc1ccc(-c2ccc3ncnc(Nc4ccc(OCc5cccc(F)c5)c(Cl)c4)c3c2)o1 [Lapatinib] + CC(=O)c1c(C)c2cnc(Nc3ccc(N4CCNCC4)cn3)nc2n(C2CCCC2)c1=O [Palbociclib] (partner 0.5 µM)
Method in brief: as §1

Lapatinib + OSI-027 = compound: CS(=O)(=O)CCNCc1ccc(-c2ccc3ncnc(Nc4ccc(OCc5cccc(F)c5)c(Cl)c4)c3c2)o1 [Lapatinib] + COc1cccc2cc(-c3nc([C@H]4CC[C@H](C(=O)O)CC4)n4ncnc(N)c34)[nH]c12 [OSI-027] (partner 0.5 µM)
Method in brief: as §1

SK-MES-1
relative viability (Wnt-C59 + Linsitinib; first compound 0.001 µM): 1.11 | relative viability (Wnt-C59 + Linsitinib; first compound 0.01 µM): 1.1 | relative viability (Wnt-C59 + Linsitinib; first compound 0.03162 µM): 1.02 | relative viability (Wnt-C59 + Linsitinib; first compound 0.1 µM): 1.08 | relative viability (Wnt-C59 + Phenformin; first compound 0.001 µM): 0.673 | relative viability (Wnt-C59 + Phenformin; first compound 0.01 µM): 0.69 | relative viability (Wnt-C59 + Phenformin; first compound 0.03162 µM): 0.694 | relative viability (Wnt-C59 + Phenformin; first compound 0.1 µM): 0.695 | relative viability (Lapatinib + Palbociclib; first compound 0.02 µM): 0.338 | relative viability (Lapatinib + Palbociclib; first compound 0.06325 µM): 0.384 | relative viability (Lapatinib + Palbociclib; first compound 0.2 µM): 0.326 | relative viability (Lapatinib + Palbociclib; first compound 0.6325 µM): 0.328 | relative viability (Lapatinib + Palbociclib; first compound 2 µM): 0.299 | relative viability (Lapatinib + OSI-027; first compound 0.02 µM): 0.472 | relative viability (Lapatinib + OSI-027; first compound 0.06325 µM): 0.453 | relative viability (Lapatinib + OSI-027; first compound 0.2 µM): 0.6 | relative viability (Lapatinib + OSI-027; first compound 0.6325 µM): 0.578 | relative viability (Lapatinib + OSI-027; first compound 2 µM): 0.256

COR-L23
relative viability (Wnt-C59 + Linsitinib; first compound 0.001 µM): 1 | relative viability (Wnt-C59 + Linsitinib; first compound 0.01 µM): 0.893 | relative viability (Wnt-C59 + Linsitinib; first compound 0.03162 µM): 1.08 | relative viability (Wnt-C59 + Linsitinib; first compound 0.1 µM): 0.837 | relative viability (Wnt-C59 + Phenformin; first compound 0.001 µM): 0.427 | relative viability (Wnt-C59 + Phenformin; first compound 0.01 µM): 0.471 | relative viability (Wnt-C59 + Phenformin; first compound 0.03162 µM): 0.442 | relative viability (Wnt-C59 + Phenformin; first compound 0.1 µM): 0.416 | relative viability (Lapatinib + Palbociclib; first compound 0.02 µM): 0.248 | relative viability (Lapatinib + Palbociclib; first compound 0.06325 µM): 0.298 | relative viability (Lapatinib + Palbociclib; first compound 0.2 µM): 0.342 | relative viability (Lapatinib + Palbociclib; first compound 0.6325 µM): 0.297 | relative viability (Lapatinib + Palbociclib; first compound 2 µM): 0.279 | relative viability (Lapatinib + OSI-027; first compound 0.02 µM): 0.771 | relative viability (Lapatinib + OSI-027; first compound 0.06325 µM): 0.651 | relative viability (Lapatinib + OSI-027; first compound 0.2 µM): 0.769 | relative viability (Lapatinib + OSI-027; first compound 0.6325 µM): 0.721 | relative viability (Lapatinib + OSI-027; first compound 2 µM): 0.654

NCI-H1355
relative viability (Wnt-C59 + Linsitinib; first compound 0.001 µM): 0.875 | relative viability (Wnt-C59 + Linsitinib; first compound 0.01 µM): 0.779 | relative viability (Wnt-C59 + Linsitinib; first compound 0.03162 µM): 0.881 | relative viability (Wnt-C59 + Linsitinib; first compound 0.1 µM): 0.673 | relative viability (Wnt-C59 + Phenformin; first compound 0.001 µM): 0.446 | relative viability (Wnt-C59 + Phenformin; first compound 0.01 µM): 0.42 | relative viability (Wnt-C59 + Phenformin; first compound 0.03162 µM): 0.456 | relative viability (Wnt-C59 + Phenformin; first compound 0.1 µM): 0.475 | relative viability (Lapatinib + Palbociclib; first compound 0.02 µM): 0.411 | relative viability (Lapatinib + Palbociclib; first compound 0.06325 µM): 0.29 | relative viability (Lapatinib + Palbociclib; first compound 0.2 µM): 0.402 | relative viability (Lapatinib + Palbociclib; first compound 0.6325 µM): 0.361 | relative viability (Lapatinib + Palbociclib; first compound 2 µM): 0.268 | relative viability (Lapatinib + OSI-027; first compound 0.06325 µM): 0.216 | relative viability (Lapatinib + OSI-027; first compound 0.2 µM): 0.342 | relative viability (Lapatinib + OSI-027; first compound 0.6325 µM): 0.367 | relative viability (Lapatinib + OSI-027; first compound 2 µM): 0.268

NCI-H441
relative viability (Wnt-C59 + Linsitinib; first compound 0.001 µM): 0.496 | relative viability (Wnt-C59 + Linsitinib; first compound 0.01 µM): 0.407 | relative viability (Wnt-C59 + Linsitinib; first compound 0.03162 µM): 0.667 | relative viability (Wnt-C59 + Linsitinib; first compound 0.1 µM): 0.575 | relative viability (Wnt-C59 + Phenformin; first compound 0.001 µM): 0.845 | relative viability (Wnt-C59 + Phenformin; first compound 0.01 µM): 0.732 | relative viability (Wnt-C59 + Phenformin; first compound 0.03162 µM): 1.04 | relative viability (Wnt-C59 + Phenformin; first compound 0.1 µM): 0.724 | relative viability (Lapatinib + Palbociclib; first compound 0.02 µM): 0.222 | relative viability (Lapatinib + Palbociclib; first compound 0.2 µM): 0.176 | relative viability (Lapatinib + Palbociclib; first compound 0.6325 µM): 0.236 | relative viability (Lapatinib + Palbociclib; first compound 2 µM): 0.185 | relative viability (Lapatinib + OSI-027; first compound 0.06325 µM): 0.34 | relative viability (Lapatinib + OSI-027; first compound 0.2 µM): 0.53 | relative viability (Lapatinib + OSI-027; first compound 0.6325 µM): 0.559 | relative viability (Lapatinib + OSI-027; first compound 2 µM): 0.617

NCI-H322M
relative viability (Wnt-C59 + Linsitinib; first compound 0.001 µM): 1.07 | relative viability (Wnt-C59 + Linsitinib; first compound 0.01 µM): 0.775 | relative viability (Wnt-C59 + Linsitinib; first compound 0.03162 µM): 0.758 | relative viability (Wnt-C59 + Linsitinib; first compound 0.1 µM): 0.685 | relative viability (Wnt-C59 + Phenformin; first compound 0.001 µM): 0.775 | relative viability (Wnt-C59 + Phenformin; first compound 0.01 µM): 0.683 | relative viability (Wnt-C59 + Phenformin; first compound 0.03162 µM): 0.629 | relative viability (Wnt-C59 + Phenformin; first compound 0.1 µM): 0.581 | relative viability (Lapatinib + Palbociclib; first compound 0.02 µM): 0.464 | relative viability (Lapatinib + Palbociclib; first compound 0.06325 µM): 0.432 | relative viability (Lapatinib + Palbociclib; first compound 0.2 µM): 0.455 | relative viability (Lapatinib + Palbociclib; first compound 0.6325 µM): 0.446 | relative viability (Lapatinib + Palbociclib; first compound 2 µM): 0.434 | relative viability (Lapatinib + OSI-027; first compound 0.02 µM): 0.591 | relative viability (Lapatinib + OSI-027; first compound 0.06325 µM): 0.374 | relative viability (Lapatinib + OSI-027; first compound 0.2 µM): 0.571 | relative viability (Lapatinib + OSI-027; first compound 0.6325 µM): 0.46 | relative viability (Lapatinib + OSI-027; first compound 2 µM): 0.431

NCI-H1993
relative viability (Wnt-C59 + Linsitinib; first compound 0.001 µM): 0.703 | relative viability (Wnt-C59 + Linsitinib; first compound 0.01 µM): 0.811 | relative viability (Wnt-C59 + Linsitinib; first compound 0.03162 µM): 0.699 | relative viability (Wnt-C59 + Linsitinib; first compound 0.1 µM): 0.799 | relative viability (Wnt-C59 + Phenformin; first compound 0.001 µM): 0.49 | relative viability (Wnt-C59 + Phenformin; first compound 0.03162 µM): 0.472 | relative viability (Wnt-C59 + Phenformin; first compound 0.1 µM): 0.514 | relative viability (Lapatinib + Palbociclib; first compound 0.02 µM): 0.687 | relative viability (Lapatinib + Palbociclib; first compound 0.2 µM): 0.471 | relative viability (Lapatinib + Palbociclib; first compound 0.6325 µM): 0.588 | relative viability (Lapatinib + Palbociclib; first compound 2 µM): 0.433 | relative viability (Lapatinib + OSI-027; first compound 0.02 µM): 0.557 | relative viability (Lapatinib + OSI-027; first compound 0.2 µM): 0.593 | relative viability (Lapatinib + OSI-027; first compound 0.6325 µM): 0.586 | relative viability (Lapatinib + OSI-027; first compound 2 µM): 0.652

LOU-NH91
relative viability (Wnt-C59 + Linsitinib; first compound 0.001 µM): 1.07 | relative viability (Wnt-C59 + Linsitinib; first compound 0.01 µM): 0.748 | relative viability (Wnt-C59 + Linsitinib; first compound 0.03162 µM): 0.854 | relative viability (Wnt-C59 + Linsitinib; first compound 0.1 µM): 0.899 | relative viability (Wnt-C59 + Phenformin; first compound 0.001 µM): 0.793 | relative viability (Wnt-C59 + Phenformin; first compound 0.01 µM): 0.641 | relative viability (Wnt-C59 + Phenformin; first compound 0.03162 µM): 0.601 | relative viability (Wnt-C59 + Phenformin; first compound 0.1 µM): 0.672 | relative viability (Lapatinib + Palbociclib; first compound 0.02 µM): 0.542 | relative viability (Lapatinib + Palbociclib; first compound 0.06325 µM): 0.525 | relative viability (Lapatinib + Palbociclib; first compound 0.2 µM): 0.508 | relative viability (Lapatinib + Palbociclib; first compound 0.6325 µM): 0.494 | relative viability (Lapatinib + Palbociclib; first compound 2 µM): 0.57 | relative viability (Lapatinib + OSI-027; first compound 0.02 µM): 0.608 | relative viability (Lapatinib + OSI-027; first compound 0.06325 µM): 0.577 | relative viability (Lapatinib + OSI-027; first compound 0.2 µM): 0.51 | relative viability (Lapatinib + OSI-027; first compound 0.6325 µM): 0.589 | relative viability (Lapatinib + OSI-027; first compound 2 µM): 0.453

201T
relative viability (Wnt-C59 + Linsitinib; first compound 0.001 µM): 1.02 | relative viability (Wnt-C59 + Linsitinib; first compound 0.01 µM): 1.04 | relative viability (Wnt-C59 + Linsitinib; first compound 0.03162 µM): 1.06 | relative viability (Wnt-C59 + Linsitinib; first compound 0.1 µM): 1.04 | relative viability (Wnt-C59 + Phenformin; first compound 0.001 µM): 0.446 | relative viability (Wnt-C59 + Phenformin; first compound 0.01 µM): 0.43 | relative viability (Wnt-C59 + Phenformin; first compound 0.03162 µM): 0.424 | relative viability (Wnt-C59 + Phenformin; first compound 0.1 µM): 0.452 | relative viability (Lapatinib + Palbociclib; first compound 0.02 µM): 0.358 | relative viability (Lapatinib + Palbociclib; first compound 0.06325 µM): 0.309 | relative viability (Lapatinib + Palbociclib; first compound 0.2 µM): 0.339 | relative viability (Lapatinib + Palbociclib; first compound 0.6325 µM): 0.338 | relative viability (Lapatinib + Palbociclib; first compound 2 µM): 0.342 | relative viability (Lapatinib + OSI-027; first compound 0.02 µM): 0.794 | relative viability (Lapatinib + OSI-027; first compound 0.06325 µM): 0.598 | relative viability (Lapatinib + OSI-027; first compound 0.2 µM): 0.597 | relative viability (Lapatinib + OSI-027; first compound 0.6325 µM): 0.807 | relative viability (Lapatinib + OSI-027; first compound 2 µM): 0.703

LXF-289
relative viability (Wnt-C59 + Linsitinib; first compound 0.001 µM): 0.99 | relative viability (Wnt-C59 + Linsitinib; first compound 0.01 µM): 0.933 | relative viability (Wnt-C59 + Linsitinib; first compound 0.03162 µM): 1 | relative viability (Wnt-C59 + Linsitinib; first compound 0.1 µM): 0.918 | relative viability (Wnt-C59 + Phenformin; first compound 0.001 µM): 0.552 | relative viability (Wnt-C59 + Phenformin; first compound 0.01 µM): 0.535 | relative viability (Wnt-C59 + Phenformin; first compound 0.03162 µM): 0.552 | relative viability (Wnt-C59 + Phenformin; first compound 0.1 µM): 0.503 | relative viability (Lapatinib + Palbociclib; first compound 0.02 µM): 0.615 | relative viability (Lapatinib + Palbociclib; first compound 0.06325 µM): 0.588 | relative viability (Lapatinib + Palbociclib; first compound 0.2 µM): 0.588 | relative viability (Lapatinib + Palbociclib; first compound 0.6325 µM): 0.577 | relative viability (Lapatinib + Palbociclib; first compound 2 µM): 0.526 | relative viability (Lapatinib + OSI-027; first compound 0.02 µM): 0.16 | relative viability (Lapatinib + OSI-027; first compound 0.06325 µM): 0.477 | relative viability (Lapatinib + OSI-027; first compound 0.2 µM): 0.796 | relative viability (Lapatinib + OSI-027; first compound 0.6325 µM): 0.714 | relative viability (Lapatinib + OSI-027; first compound 2 µM): 0.723
